Results from patent US20220249525A1, “Fatty Acid Compounds for Prevention and Treatment of Neurodegenerative Disorders” (T OMEGA AS, priority 2019, published 2022).

Assays:
Assay type in all cases: cell-based
[1] = system: HeLaNRF1/c4 reporter cells; assay: Gene expression (qPCR) in HeLaNRF1/c4 reporter cells; conditions: long-term treatment
Protocol: The HeLaNRF1/c4 reporter cells were employed to investigate effects of the modified fatty acids on NRF1-regulated mitochondrial biogenesis. The cells (250,000) were seeded in T75 flasks and incubated for 3 hours to allow attachment. The compounds were dissolved in DMSO and diluted in culture medium to provide the final concentration. DMSO at a concentration equivalent to the highest compound concentration was added to control cultures. Resveratrol and AICAR were used as positive controls. Resveratrol has not previously been tested in this reporter model, but we found it relevant to include it for purposes of experimental and mechanistic comparisons. After 3 days of treatment the media was replaced with fresh media containing the corresponding compound. On day 5, the cells were harvested and the cultures split into three fractions: One fraction was used for detection of mitoGFP expression by flow cytometry, to assess effects on NRF-1 regulated mitochondrial biogenesis. Flow cytometry analysis was performed as previously described. Another fraction was used for extraction of RNA and subsequent gene expression analysis using quantitative PCR (see below). The last fraction was employed to investigate effects on mitochondrial respiratory function by extracellular flux analysis (described above). The experiment was replicated three times.
Total RNA was extracted from harvested cells (RNAeasy kit Qiagen, Hilden, Germany). The RNA content was quantified on Nanodrop 1000 Spectrophotometer (Thermo Scientific). From 1 μg total RNA, cDNA was synthesized using High-Capacity Reverse Transcription Kit (Applied Biosystems, Carlsbad, Calif., US). Gene quantification was done using TaqMan probes for gene expression assays (Applied Biosystems). Probes used were: PGC1α (PPARG coactivator 1α), Hs00173304_m1; HIF1α (hypoxia inducible factor 1α), Hs00153153_m1; PDK1 (pyruvate dehydrogenase kinase 1), Hs01561847_m1; PDK4, (pyruvate dehydrogenase kinase 4), Hs01037712_m1; SIRT4 (sirtuin 4) Hs01015516_g1; ACOX1 (acyl-CoA oxidase 1) Hs01074241_m1; as reference genes, we used; Eukaryotic 18S rRNA Hs99999901_s1; actin beta Hs99999903_m1. Fold change was calculated as geometric mean of ΔΔCt of the two reference genes.

[2] = system: HeLaNRF1/c4 reporter cells; assay: Resazurin conversion assay in HeLaNRF1/c4 reporter cells; conditions: test compounds 30 μM and 60 μM, long treatment
Protocol: (§1) Non-small cell lung cancer cells, HCC827 (ATCC) were cultured in RPMI-1640 Glutamax medium (Sigma-Aldrich St. Louis, Mo., USA), under conventional culture conditions. Media was supplemented with 10% Fetal Bovine Serum (FBS), 1% glutamine and 1% streptomycin/penicillin (Sigma-Aldrich). HeLaNRF1/c4 reporter cells were cultured in Dulbecco's Modified Eagle's Medium (DMEM) supplemented with 10% FBS, 2 mM L-Glutamine, 100 u/ml penicillin/streptomycin (Sigma-Aldrich,). Incubation was done at 37° C. in 5% CO2.
(§2) Cell viability/proliferation was determined by the resazurin conversion assay. A total of 4000 cells were seeded in each of the 96-well plates in 100 μl of medium. After 3 hours of incubation, 100 μl of fresh medium with respective concentration of the desired compound or controls were added. Resazurin solution (Sigma-Aldrich) was added (10%, v/v in PBS) after 1 or 3 day treatment, followed by 3 hour incubation at 37° C. and 5% CO2. Resazurin fluorescence (excitation, 540 nm; emission, 590 nm) was measured and measurements were corrected for background signals. […] Relative viability was calculated from percent fluorescence relative to DMSO-treated control wells.
In order to investigate if some of the compounds induce metabolic adaptations involving mitochondrial biogenesis, we employed the HeLaNRF1/c4 reporter cells in which activation of the transcription factor NRF1 triggers expression of GFP. Since adaptations of mitochondrial biogenesis are known to require some days to develop, we used a relatively low dosage (30 μM and 60 μM) of the compounds, to allow longer treatment period compared to the previous short term experiments.

[3] = system: HCC827 cells; assay: Resazurin conversion cell viability/proliferation assay in HCC827 cells; conditions: for overall effects on cell viability and mitochondrial function (summary): cultured cells, relatively high dosage
Protocol: as §1, §2

[4] = system: HCC827 cells; assay: Mitochondria respiration assay (OCR, extracellular flux) in HCC827 cells
Protocol: as §1
Mitochondria function was analyzed by measuring oxygen consumption rate (OCR) by extracellular flux analysis in a Seahorse XFe96 instrument (Agilent Seahorse XF Technologies). The measurements were performed in DADA basic media without phenol red, supplemented with L-glutamine (2 mM), pyruvate (2 mM), and sodium chloride, NaCl (32 mM) (Sigma-Aldrich). Respiratory rates were measured following sequential additions of glucose (10 mM), oligomycin, carbonyl cyanide m-chlorophenyl hydrazine (CCCP) and a mixture of rotenone (1 μM) and antimycin A (1 μM). Before carrying out the measurements for each cell model, optimizations were done for; cell number, CCCP, and oligomycin concentrations. For the HCC 827 cell model optimal conditions were; 30,000 cells/well, 0.5 μM CCCP, and 3 μM Oligomycin; and in HeLaNRF1/c4 reporter cell model; 20,000 cells/well, 1 μM CCCP and 3 μM Oligomycin. The OCR measured initially (before any additions) represented the rate ‘basal respiration.’ The addition of ATP synthase inhibitor oligomycin provided oxygen consumption independent of ATP production (‘leak activity’). Maximal respiration (also referred to as ‘respiratory capacity’) was measured upon addition of the uncoupler CCCP. […] After the extracellular flux analysis the analysis plates were washed with Phosphate Buffered Saline (PBS) and frozen at −80° C. The BCA assay (Pierce BCA protein assay kit, Thermo Fisher Scientific, Waltham, Mass. USA) was employed to measure the protein content in the wells. To evaluate the effects of the different treatments, the respiratory rates from compound-treated wells were normalized to protein content, and calculated as percentage of the average respiratory rate of the DMSO-treated control wells. All treatments were performed with 6-8 replicate wells.

Structure (SMILES) | PDK4 expression [1] | resazurin conversion [2] | overall effects on cell viability and mitochondrial function (summary) [3] | basal respiratory rate (OCR) ([4]; compared to control) | viability (resazurin conversion) ([3]; HCC827 cells, 200 μM) | uncoupled respiratory capacity after CCCP [4] | leak respiration after oligomycin ([4]; 100 μM TTA, 200 μM 2-triple TTA, 30 μM TDG)
C#CCCCCCCCCCCCNCC(=O)O [2-triple TDG, N-(tridec-12-yn-yl) glycine] | moderate effect | no significant effect | harmful effects were significantly reduced | – | – | – | –
Oc1ccc(C=Cc2cc(O)cc(O)c2)cc1 [resveratrol, Resveratrol, reference compound] | – | moderate reduction | – | little or no effect | – | – | –
CCCC(SCC)C(=O)O (stereo not drawn) [2-(ethylthio) pentanoic acid, 2-(ethylthio)pentanoic acid] | – | – | only minor effects | – | – | – | –
CC#CCCCCCCCCCCCSCC(=O)O [2-triple TTA, 2-(Tetradec-12-yn-1-ylthio)acetic acid] | moderate effect | little or no effect | harmful effects were significantly reduced | – | moderate antiproliferative effect | stronger dose-dependent effect | significantly increased
